Blank lines part the entries; values can stand above or below the molecule they belong to. No end group written: not given here. *: point of attachment. Biotin = O=C1N[C@H]2[C@H](CS[C@H]2CCCCC(=O)*)N1
Experiments:
all RXR subtypes = tested on: all RXR subtypes; set-up: method as in PMID 9205071, PMID 26030625, PMID 27151148; conditions: read-out: EC50 activating all RXR subtypes; cited from earlier work
RXR = experiment: Gal4 hybrid reporter gene assays, competition with bexarotene / antagonist UVI3003 (isoform not specified); format: cell-based, human; conditions: UVI3003 at 1 µM; MA, PA and SA at 200 µM
Procedure: The Gal4 hybrid reporter gene assays for RXRα, RXRβ and RXRγ were performed as described previously using the Gal4-fusion receptor plasmids pFA-CMV-hRXRα-LBD (NR2B1, UniProt entry: P19793, aa 225–462), pFA-CMV-hRXRβ-LBD (NR2B2, UniProt entry: P28702-1, aa 294–533) and pFA-CMV-hRXRγ-LBD (NR2B3, UniProt entry: P48443-1, aa 229–463), which code for the hinge region and LBD of the canonical RXR isoform. pFR-Luc (Stratagene, San Diego, CA, USA) as the reporter plasmid and pRL-SV40 (Promega, Madison, WI, USA) as the internal control were used. HEK293T cells were grown in DMEM high-glucose medium (supplemented with 10% fetal calf serum (FCS), sodium pyruvate (1 mM), penicillin (100 U/mL) and streptomycin (100 μg/mL)) at 37 °C and 5% CO2, and seeded in 96-well plates (3.0 × 10^4 cells/well) on the day before transfection. Right before transfection, medium was changed to Opti-MEM without supplements and cells were transiently transfected using the Lipofectamine LTX reagent (Invitrogen, Carlsbad, CA, USA) according to the manufacturer’s protocol with pFR-Luc (Stratagene), pRL-SV40 (Promega) and the respective pFA-CMV-hRXR-LBD clone. After 5 h of incubation, medium was changed to Opti-MEM (supplemented with penicillin (100 U/mL) and streptomycin (100 μg/mL)) additionally containing 0.1% DMSO and the respective test compounds or 0.1% DMSO alone as the untreated control. After overnight incubation (12–14 h), cells were assayed for luciferase activity using the Dual-Glo luciferase assay system (Promega) according to the manufacturer’s protocol on a Tecan Spark M10 luminometer (Tecan Deutschland GmbH, Crailsheim, Germany). Each sample was tested in at least three biologically independent repeats in duplicates. Data were normalized for transfection efficiency and cell growth by division of firefly luciferase data by Renilla luciferase data and multiplying by 1000 to obtain relative light units (RLUs). Fold activation denotes the mean RLU of test compounds at a respective concentration divided by the mean RLU of untreated control. […]

RXRα = tested on: RXRα; set-up: method as in PMID 15073272; conditions: cited from earlier work
[1] = biological target: T1, sGFP-RXRα LBD (aa 225–462) (human, UniProt P19793 225-462); experiment: AlphaScreen or HTRF; 12 nM sGFP-RXRα LBD (acceptor), 12 nM biotin-SRC-1 peptide on terbium cryptate-streptavidin (donor); 25 mM HEPES pH 7.5, 150 mM KF, 5% glycerol, 0.1% CHAPS, 5 mM DTT, 1% DMSO; 2 h at room temperature; with myristic, palmitic or stearic acid at varying concentrations, with or without 0.3 µM bexarotene; SR11237 as positive control; conditions: both partners purified
T1 construct: also called recombinant RXRα LBD fused to N-terminal superfolder green fluorescent protein; source: recombinant; not shown: superfolder green fluorescent protein (sGFP), N-terminal, kept
T1 sequence (looked up): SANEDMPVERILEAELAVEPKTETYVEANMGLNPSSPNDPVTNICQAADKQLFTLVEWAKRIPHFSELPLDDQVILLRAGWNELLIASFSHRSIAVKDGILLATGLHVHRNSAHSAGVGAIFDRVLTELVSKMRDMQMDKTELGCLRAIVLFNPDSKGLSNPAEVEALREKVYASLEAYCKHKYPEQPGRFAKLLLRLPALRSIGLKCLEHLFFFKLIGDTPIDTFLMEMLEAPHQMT

[2] = biological target: T2, RXRβ ligand-binding domain (NR2B2, aa 298–533) (human, UniProt P28702 298-533); experiment: crystal structure; sitting drop vapor diffusion at 20 °C; RXR LBD (10–13 mg/mL) with GRIP-1 peptide and palmitic acid (carried over from E. coli for RXRα, exogenously added for RXRβ and RXRγ); conditions: both partners purified
T2 construct: Cloned in pNIC28-Bsa4; Crystallised with exogenously added palmitic acid; also called RXRβ LBD; not shown: histidine tag, N-terminal, cleaved
T2 sequence (looked up): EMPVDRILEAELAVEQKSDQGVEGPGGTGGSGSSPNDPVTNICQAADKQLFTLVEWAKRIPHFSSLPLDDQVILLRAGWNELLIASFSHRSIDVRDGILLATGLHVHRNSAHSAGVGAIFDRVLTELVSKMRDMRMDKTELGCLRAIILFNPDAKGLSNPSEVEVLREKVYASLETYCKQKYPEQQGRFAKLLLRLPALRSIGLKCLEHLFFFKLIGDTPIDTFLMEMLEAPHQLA

[3] = biological target: T3, RXRγ ligand-binding domain (NR2B3, aa 233–463) (human, UniProt P48443 233-463); experiment: as above; conditions: both partners purified
T3 construct: Cloned in pNIC28-Bsa4; Crystallised with exogenously added palmitic acid; also called RXRγ LBD; not shown: histidine tag, N-terminal, cleaved
T3 sequence (looked up): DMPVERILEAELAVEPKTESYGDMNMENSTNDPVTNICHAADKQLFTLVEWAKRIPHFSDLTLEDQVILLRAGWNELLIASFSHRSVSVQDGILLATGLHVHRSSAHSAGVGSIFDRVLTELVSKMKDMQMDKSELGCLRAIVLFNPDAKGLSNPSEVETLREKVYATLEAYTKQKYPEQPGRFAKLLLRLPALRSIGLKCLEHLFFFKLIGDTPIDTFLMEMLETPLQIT

[4] = biological target: T4, RXRα ligand-binding domain (NR2B1, aa 223–462) (human, UniProt P19793 223-462); experiment: as above; conditions: both partners purified
T4 construct: Cloned in pNIC28-Bsa4; Palmitic acid carried over from E. coli sat in the ligand pocket in the crystal; also called RXRα LBD; retinoid X receptor α; not shown: histidine tag, N-terminal, cleaved
T4 sequence (looked up): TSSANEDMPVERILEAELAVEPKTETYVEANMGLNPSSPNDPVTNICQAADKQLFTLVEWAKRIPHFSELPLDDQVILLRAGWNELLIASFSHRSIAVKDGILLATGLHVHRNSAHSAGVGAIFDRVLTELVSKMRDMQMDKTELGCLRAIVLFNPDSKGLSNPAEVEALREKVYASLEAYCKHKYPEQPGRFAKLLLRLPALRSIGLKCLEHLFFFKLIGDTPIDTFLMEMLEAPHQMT

Molecule: CC1=C(/C=C/C(C)=C\C=C\C(C)CC(=O)O)C(C)(C)CCC1 (stereo not drawn) [9-cis-13,14-dihydroretinoic acid]
EC50 (all RXR subtypes): ~0.1 µM

Molecule: CC1=C(/C=C/C(C)=C\C=C\C(C)=C\C(=O)O)C(C)(C)CCC1 [9-cis-retinoic acid]
EC50 (all RXR subtypes): ~0.1 µM

Molecule: CCCCCOc1cc2c(cc1-c1cc(/C=C/C(=O)O)ccc1O)C(C)(C)CCC2(C)C [UVI3003, reference compound]
reversal of RXR agonistic effect of MA, PA and SA (RXR): fully reversed

Molecule: CCCCC/C=C\C/C=C\C/C=C\C/C=C\CCCC(=O)O [arachidonic acid]
EC50 (RXRα): ~10 µM

Molecule: CC/C=C\C/C=C\C/C=C\C/C=C\C/C=C\C/C=C\CCC(=O)O [docosahexaenoic acid]
EC50 (RXRα): ~10 µM

binding result [1]: binds
B1: SRC-1-derived peptide (steroid receptor co-activator 1) (peptide)
peptide: Biotin-CPSSHSSLTERHKILHRLLQEGSPS
notes: NCOA1), contains the consensus motif LxxLL; Coupled through its biotin to terbium cryptate-streptavidin conjugate (FRET donor); source: bought: Eurogentec Deutschland GmbH; not shown: biotin, N-terminal, kept

binding result [2]: binds | binding result [3]: binds | binding result [4]: binds
B2: glucocorticoid receptor interacting protein 1 (GRIP-1) co-regulator peptide (peptide)
peptide: KHKILHRLLQDSSY
notes: NCOA2/TIF2) with an LxxLL box; last printed residue of the peptide; also called GRIP-1 peptide
